From patent publication US20220127232A1, “HISTONE ACETYLTRANSFERASE MODULATORS AND COMPOSITIONS AND USES THEREOF” (The Trustees of Columbia University in the City of New York, priority 2019, published 2022)
Entries after “also recorded” stand apart in the source; their conditions may differ. Where two headings read alike, the source gives them in different places.

What was measured:
[1] = cited from earlier work
[2] = Stability in human liver microsomes; assay type: in vitro ADME; settings: for microsomal CLint at 1 μM / half-life at 1 μM: both sexes, human, liver microsomes, pH 7.4, human liver microsomes; for % Remaining of Initial (n = 1) 0 min / % Remaining of Initial (n = 1) 10 min / % Remaining of Initial (n = 1) 20 min / % Remaining of Initial (n = 1) 30 min / % Remaining of Initial (n = 1) 60 min: human liver microsomes, test article 1 μM
Description: Some compounds were tested for stability in human liver microsomes as shown below in Table 2.
Mixed-gender human liver microsomes (Lot #1010420) were purchased from XenoTech. The reaction mixture, minus NADPH, was prepared as described below. The test article was added into the reaction mixture at a final concentration of 1 μM. The control compound, testosterone, was run simultaneously with the test article in a separate reaction. An aliquot of the reaction mixture (without cofactor) was equilibrated in a shaking water bath at 37° C. for 3 minutes. The reaction was initiated by the addition of the cofactor, and the mixture was incubated in a shaking water bath at 37° C. Aliquots (100 μL) were withdrawn at 0, 10, 20, 30, and 60 minutes. Test article and testosterone samples were immediately combined with 400 μL of ice-cold 50/50 acetonitrile (ACN)/H2O containing 0.1% formic acid and internal standard to terminate the reaction. The samples were then mixed and centrifuged to precipitate proteins. All samples were assayed by LC-MS/MS using electrospray ionization. Analytical conditions are outlined in Appendix 1. The peak area response ratio (PARR) to internal standard was compared to the PARR at time 0 to determine the percent remaining at each time point. Half-lives and clearance were calculated using GraphPad software, fitting to a single-phase exponential decay equation.
Liver Microsomes 0.5 mg/mL NADPH (cofactor) 1 mM
Potassium Phosphate, pH 7.4 100 mM
Intrinsic clearance (CLint) was calculated based on CLint=k/P, where k is the elimination constant and P is the protein concentration in the incubation.

p300 = p300 (Homo sapiens, UniProt Q09472); experiment: Histone Acetyltransferase (HAT) in vitro acetylation assay, western blot of H3K27ac / H3K18ac; assay type: biochemical; settings: compound in DMSO, EC50 for activators
Description: The aim of the in vitro acetylation assay is to measure the enzymatic activity of the various compounds towards p300.
First, the drug is prepared:
Second, dilute p300 in AM1 buffer to a concentration of 40 ng/μL (final concentration in the reaction 20 ng/μL). This is accomplished by diluting 1 μL of p300 (at 0.4 μg/μL) into […] of AM1 buffer.
Third, prepare the Master Mix. Prepare the Master Mix in low protein binding tubes (ThermoFisher Cat. No. 90410), 20 μL system.
Incubate reactions at 30° C. for 30 minutes.
Incubate reactions at 30° C. for 1 hour.
Fourth, perform the western blot assay. • Add 6.7 μL of Laemmli Sample Buffer 4× (Bio-Rad Laboratories Cat. No. 161-0737) for each reaction and boil samples at 95° C. for 5 min. • Charge 10 μL for each sample in 2 Tris Glycine 4-15% gels (Bio-Rad Laboratories Cat. No. 456-1086). Running Buffer: Tris-Glycine 1× (pour in the cell up to the writing “2 gels”). • Run at 90 V for 1 hour (until the gel front reaches the green line of cell). • Semi-dry transfer with Trans-Blot® Turbo™ Blotting System from Bio-Rad Laboratories (Trans-Blot® Turbo™ RTA midi PVDF transfer kit Cat. No1704275). • Activate PVDF membrane in methanol for 5 minutes and then wet in Trans-Blot® Turbo™ transfer buffer. • Wet stacks in transfer buffer. • Transfer at 23 V 1.3 A for 7 minutes. • Blocking buffer: 5% Non-Fat milk in TBST (tween 0.1%) 1 hour at room temperature. • Cut the membranes to get Ac-His 3 at 17 kDa and p300 at 300 kDa. • Incubate with primary antibodies overnight at 4° C. • The day after, make 3 washes in TBST (Tween 0.1%) of 10 minutes. • Incubate with secondary antibody at room temperature for 1 hour. • Make 3 washes in TBST (Tween 0.1%) of 5 minutes. • Incubate membranes with ECL (SuperSignal West Dura Extended Duration Substrate from ThermoFisher) for 5 minutes at room temperature. • Acquire the image with ChemiDoc Odyssey Fc 2 minutes.
To detect total H3 (loading control), strip the membranes with Restore™ Western Blot Stripping Buffer according to the manufacturer protocol.
Various compounds were tested for enzymatic activity with respect to Lys 18 and Lys 27. EC50 is indicated for Activators and IC50 for inhibitors respectively.
FIGS. 1A to 25B are graphs showing the lysine residue acetylation as a function of concentration for the compounds set forth in Table 3. The shaded area corresponds to the average values of lysine residue acetylation (continuous line) and their standard error range measured in the absence of compound and DMSO. The number of replicates is represented by “n”.

[3] = tested on: hippocampal slices from WT mice; experiment: Long-term potentiation (LTP) in hippocampal slices perfused with oTau or oAβ; assay type: cell-based; settings: slices perfused with compound and either oTau (50 nM) or oAβ (200 nM)
Source text: Synaptic dysfunction is a major hallmark of AD (Histol Histopathol, 1995. 10(2): p. 509-19; herein incorporated by reference in its entirety). An aspect of the drug screening protocol can include a measurement of the effect of compounds onto synaptic function. Amyloid-beta (Aβ) is a toxic peptide that is thought to underlie subtle amnesic changes occurring at early stages of Alzheimer's disease. It impairs both memory and its electrophysiological surrogate, long-term potentiation (LTP). LTP can be examined because it is a type of synaptic plasticity thought to underlie learning and memory. RA010115 can rescue the Aβ-induced reduction of LTP, and other compounds can also be screened to identify those that can re-establish normal LTP. The compounds can be applied for 20 min. Controls can be performed on slices in the absence of Aβ, and mice treated with compound. Tau is another peptide that is involved in cell to cell communication, and impairs both memory and LTP in animal models of AD and other tauopathies. FIG. 26 is a graph showing that RA010115 rescues oligomeric Tau (oTau)- and oligomeric Aβ (o Aβ)-induced LTP deficits. LTP was impaired in hippocampal slices from WT mice perfused with oTau (50 nM) and oAβ (200 nM), whereas there was no impairment in slices treated with RA10115 or vehicle. LTP was restored in slices perfused with RA010115 and either oTau or oAβ. The horizontal solid bar represents oAβ and oTau perfusion while the horizontal dashed bar represents RA010115. The three arrows correspond to the theta-burst stimulation. […]

Sequence of p300 (Q09472 whole entry, species assumed): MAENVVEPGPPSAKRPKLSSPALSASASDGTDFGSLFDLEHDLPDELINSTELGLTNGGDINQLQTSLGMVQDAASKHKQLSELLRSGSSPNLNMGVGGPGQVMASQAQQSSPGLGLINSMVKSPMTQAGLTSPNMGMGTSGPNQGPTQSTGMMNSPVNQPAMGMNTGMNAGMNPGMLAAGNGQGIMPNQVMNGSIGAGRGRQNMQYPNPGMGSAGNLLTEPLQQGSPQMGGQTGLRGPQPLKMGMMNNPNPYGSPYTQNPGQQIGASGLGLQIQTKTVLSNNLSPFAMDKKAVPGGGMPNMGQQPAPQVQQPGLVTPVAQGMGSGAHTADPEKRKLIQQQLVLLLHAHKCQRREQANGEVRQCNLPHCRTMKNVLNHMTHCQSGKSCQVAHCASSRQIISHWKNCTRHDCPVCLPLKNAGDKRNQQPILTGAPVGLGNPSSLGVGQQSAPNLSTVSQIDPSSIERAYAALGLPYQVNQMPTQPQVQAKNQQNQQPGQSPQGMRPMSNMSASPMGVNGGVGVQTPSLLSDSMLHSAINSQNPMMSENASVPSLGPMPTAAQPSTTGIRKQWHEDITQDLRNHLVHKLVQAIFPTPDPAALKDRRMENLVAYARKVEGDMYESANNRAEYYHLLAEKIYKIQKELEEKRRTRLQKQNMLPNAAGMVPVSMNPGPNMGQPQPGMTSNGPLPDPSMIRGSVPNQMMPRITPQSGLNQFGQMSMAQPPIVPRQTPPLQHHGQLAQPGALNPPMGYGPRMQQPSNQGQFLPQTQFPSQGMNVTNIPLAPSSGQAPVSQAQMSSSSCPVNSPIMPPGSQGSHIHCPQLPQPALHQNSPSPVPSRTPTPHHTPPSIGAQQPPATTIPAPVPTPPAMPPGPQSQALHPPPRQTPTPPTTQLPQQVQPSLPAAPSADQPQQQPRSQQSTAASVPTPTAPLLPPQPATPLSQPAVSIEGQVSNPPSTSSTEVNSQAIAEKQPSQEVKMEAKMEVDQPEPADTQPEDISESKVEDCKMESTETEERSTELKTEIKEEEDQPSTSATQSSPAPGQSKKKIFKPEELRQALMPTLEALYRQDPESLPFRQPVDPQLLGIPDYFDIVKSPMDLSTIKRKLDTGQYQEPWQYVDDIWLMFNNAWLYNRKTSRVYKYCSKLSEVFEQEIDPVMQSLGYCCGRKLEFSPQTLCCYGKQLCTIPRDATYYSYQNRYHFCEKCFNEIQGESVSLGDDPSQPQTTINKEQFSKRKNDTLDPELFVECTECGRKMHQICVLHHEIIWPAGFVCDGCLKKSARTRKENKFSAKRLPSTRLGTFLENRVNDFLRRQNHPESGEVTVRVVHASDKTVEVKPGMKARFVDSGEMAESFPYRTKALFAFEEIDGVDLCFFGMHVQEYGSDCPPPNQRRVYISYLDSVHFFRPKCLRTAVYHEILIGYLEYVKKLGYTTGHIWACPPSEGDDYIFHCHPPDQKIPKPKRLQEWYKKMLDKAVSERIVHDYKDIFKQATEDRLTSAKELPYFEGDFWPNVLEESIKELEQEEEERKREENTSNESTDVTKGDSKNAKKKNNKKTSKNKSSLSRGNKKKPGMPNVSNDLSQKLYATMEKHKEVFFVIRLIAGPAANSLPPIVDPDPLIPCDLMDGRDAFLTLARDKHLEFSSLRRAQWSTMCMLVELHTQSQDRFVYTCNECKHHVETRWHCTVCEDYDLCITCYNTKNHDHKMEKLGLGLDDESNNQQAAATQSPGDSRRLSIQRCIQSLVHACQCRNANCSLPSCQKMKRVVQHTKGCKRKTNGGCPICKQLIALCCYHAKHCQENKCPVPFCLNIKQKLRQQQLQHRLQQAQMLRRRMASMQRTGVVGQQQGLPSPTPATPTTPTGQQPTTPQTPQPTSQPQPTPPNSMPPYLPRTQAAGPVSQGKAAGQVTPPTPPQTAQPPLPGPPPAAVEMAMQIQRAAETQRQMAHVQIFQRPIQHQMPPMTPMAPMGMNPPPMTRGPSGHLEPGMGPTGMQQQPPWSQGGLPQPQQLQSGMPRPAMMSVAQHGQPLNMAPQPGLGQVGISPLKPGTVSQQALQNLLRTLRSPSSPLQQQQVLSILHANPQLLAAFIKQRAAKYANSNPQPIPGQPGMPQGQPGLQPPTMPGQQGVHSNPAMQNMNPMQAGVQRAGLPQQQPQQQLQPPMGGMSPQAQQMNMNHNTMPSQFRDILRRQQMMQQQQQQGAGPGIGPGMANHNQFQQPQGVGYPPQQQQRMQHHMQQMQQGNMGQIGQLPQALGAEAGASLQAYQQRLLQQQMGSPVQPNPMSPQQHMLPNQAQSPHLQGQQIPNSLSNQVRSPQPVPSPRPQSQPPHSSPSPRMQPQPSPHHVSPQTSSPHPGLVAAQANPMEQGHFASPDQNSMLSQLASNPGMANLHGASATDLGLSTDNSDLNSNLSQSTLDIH

Compound	Solubility [1]	microsomal CLint at 1 μM ([2]; calculated value printed in parentheses behind the bound, read-out: CLint, value in parentheses) [µL/min/mg]	half-life at 1 μM ([2]; fitted value printed in parentheses behind the bound, read-out: Half-life, value in parentheses) [min]	microsomal CLint at 1 μM ([2]; read-out: CLint) [µL/min/mg]	half-life at 1 μM ([2]; read-out: Half-life) [min]	% Remaining of Initial (n = 1) 0 min [2] [%]	% Remaining of Initial (n = 1) 10 min [2] [%]	% Remaining of Initial (n = 1) 20 min [2] [%]	% Remaining of Initial (n = 1) 30 min [2] [%]	% Remaining of Initial (n = 1) 60 min [2] [%]	EC50 (p300; read-out: H3-Lys 18 EC50) [nM]	EC50 (p300; read-out: H3-Lys 27 EC50) [nM]	oTau- and oAβ-induced LTP deficits [3]
CCOc1ccccc1C(=O)Nc1ccc(Cl)c(C(F)(F)F)c1 [CTB]	insoluble												
CCCCCCCCCCCCCCCc1cccc(OCC)c1C(=O)Nc1ccc(Cl)c(C(F)(F)F)c1 [CTPB]	insoluble												
CCOc1ccnc(OCCN(C)C)c1C(=O)Nc1ccc(Cl)c(C(F)(F)F)c1 [RA013005]		188	7.36	> 139	< 10	100	40.5	14.1	4.97	<1.00	76.5	594	
CCOc1cccc(OCCN(C)C)c1C(=O)Nc1ccc(Cl)c(C(F)(F)F)n1 [RA013915]				43.2	32.1	100	79.6	63.8	52.4	27.6	72.6	57.6	restored; also recorded: rescues
